Measured values as given in PubChem BioAssay (NCI).
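All cell lines were grown in 96-well plates and treated with compound for 48 hours. Definition used: TGI = concentration required for complete inhibition of growth.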

What was measured:
Test in all cases: growth of human tumour cells (NCI), 48 h
SR leukemia = test system: SR leukemia
NCI-H522 lung = test system: NCI-H522 lung
RPMI-8226 leukemia = test system: RPMI-8226 leukemia
ACHN renal = test system: ACHN renal
M19-MEL melanoma = test system: M19-MEL melanoma
SW-620 colon = test system: SW-620 colon
IGROV1 ovarian = test system: IGROV1 ovarian
HT29 colon = test system: HT29 colon
KM12 colon = test system: KM12 colon
SNB-75 CNS = test system: SNB-75 CNS
MALME-3M melanoma = test system: MALME-3M melanoma
OVCAR-5 ovarian = test system: OVCAR-5 ovarian
NCI-H23 lung = test system: NCI-H23 lung
MOLT-4 leukemia = test system: MOLT-4 leukemia
LOX IMVI melanoma = test system: LOX IMVI melanoma
DMS 273 small cell lung = test system: DMS 273 small cell lung
KM20L2 colon = test system: KM20L2 colon
DLD-1 colon = test system: DLD-1 colon
UO-31 renal = test system: UO-31 renal
786-0 renal = test system: 786-0 renal
SF-295 CNS = test system: SF-295 CNS
HCT-116 colon = test system: HCT-116 colon
A549 NSCLC = test system: A549 NSCLC
SK-MEL-28 melanoma = test system: SK-MEL-28 melanoma
HL-60(TB) leukemia = test system: HL-60(TB) leukemia
HCT-15 colon = test system: HCT-15 colon
SNB-19 CNS = test system: SNB-19 CNS
SK-OV-3 ovarian = test system: SK-OV-3 ovarian
LXFL 529 NSCLC = test system: LXFL 529 NSCLC
TK-10 renal = test system: TK-10 renal
COLO 205 colon = test system: COLO 205 colon
SN12C renal = test system: SN12C renal
A498 renal = test system: A498 renal
K-562 leukemia = test system: K-562 leukemia
SF-539 CNS = test system: SF-539 CNS
OVCAR-3 ovarian = test system: OVCAR-3 ovarian
NCI-H460 lung = test system: NCI-H460 lung
UACC-62 melanoma = test system: UACC-62 melanoma
OVCAR-4 ovarian = test system: OVCAR-4 ovarian
RXF 393 renal = test system: RXF 393 renal
OVCAR-8 ovarian = test system: OVCAR-8 ovarian
HOP-92 NSCLC = test system: HOP-92 NSCLC
CAKI-1 renal = test system: CAKI-1 renal
SF-268 CNS = test system: SF-268 CNS
UACC-257 melanoma = test system: UACC-257 melanoma
SK-MEL-5 melanoma = test system: SK-MEL-5 melanoma
NCI-H226 lung = test system: NCI-H226 lung
M14 melanoma = test system: M14 melanoma
U251 CNS = test system: U251 CNS
EKVX NSCLC = test system: EKVX NSCLC
SK-MEL-2 melanoma = test system: SK-MEL-2 melanoma
XF 498 CNS = test system: XF 498 CNS
HOP-18 NSCLC = test system: HOP-18 NSCLC
HCC-2998 colon = test system: HCC-2998 colon
HOP-62 NSCLC = test system: HOP-62 NSCLC
SNB-78 CNS = test system: SNB-78 CNS
CCRF-CEM leukemia = test system: CCRF-CEM leukemia
DMS 114 small cell lung = test system: DMS 114 small cell lung

`O=C(O/N=C1/CCC/C1=C\c1ccccc1)c1ccc(Cl)cc1` was tested, and the TGI (SR leukemia) was > 100 µM, the TGI (NCI-H522 lung) was > 100 µM and the TGI (RPMI-8226 leukemia) was > 100 µM. For the same compound, the TGI (ACHN renal) was > 100 µM, the TGI (M19-MEL melanoma) was > 100 µM and the TGI (SW-620 colon) was > 100 µM. For the same compound, the TGI (IGROV1 ovarian) was > 65 µM, the TGI (HT29 colon) was > 100 µM and the TGI (KM12 colon) was > 100 µM. The TGI (SNB-75 CNS) was 78 µM, the TGI (MALME-3M melanoma) was > 100 µM and the TGI (OVCAR-5 ovarian) was > 100 µM. For the same compound, the TGI (NCI-H23 lung) was > 95.3 µM, the TGI (MOLT-4 leukemia) was > 100 µM and the TGI (LOX IMVI melanoma) was > 100 µM. For the same compound, the TGI (DMS 273 small cell lung) was > 100 µM, the TGI (KM20L2 colon) was > 100 µM and the TGI (DLD-1 colon) was > 31.6 µM. For the same compound, the TGI (UO-31 renal) was > 100 µM, the TGI (786-0 renal) was > 100 µM and the TGI (SF-295 CNS) was > 100 µM. For the same compound, the TGI (HCT-116 colon) was > 100 µM, the TGI (A549 NSCLC) was > 100 µM and the TGI (SK-MEL-28 melanoma) was > 100 µM. The TGI (HL-60(TB) leukemia) was > 100 µM, the TGI (HCT-15 colon) was > 100 µM and the TGI (SNB-19 CNS) was > 100 µM. The TGI (SK-OV-3 ovarian) was > 100 µM, the TGI (LXFL 529 NSCLC) was > 100 µM and the TGI (TK-10 renal) was > 100 µM. For the same compound, the TGI (COLO 205 colon) was > 100 µM, the TGI (SN12C renal) was > 100 µM and the TGI (A498 renal) was > 100 µM. For the same compound, the TGI (K-562 leukemia) was > 100 µM, the TGI (SF-539 CNS) was > 62.2 µM and the TGI (OVCAR-3 ovarian) was > 71.9 µM. For the same compound, the TGI (NCI-H460 lung) was > 31.6 µM, the TGI (UACC-62 melanoma) was > 100 µM and the TGI (OVCAR-4 ovarian) was 58.7 µM. For the same compound, the TGI (RXF 393 renal) was > 31.6 µM, the TGI (OVCAR-8 ovarian) was > 100 µM and the TGI (HOP-92 NSCLC) was > 100 µM. The TGI (CAKI-1 renal) was > 82.4 µM, the TGI (SF-268 CNS) was > 100 µM and the TGI (UACC-257 melanoma) was > 100 µM. For the same compound, the TGI (SK-MEL-5 melanoma) was > 100 µM, the TGI (NCI-H226 lung) was > 100 µM and the TGI (M14 melanoma) was > 100 µM. The TGI (U251 CNS) was > 89.8 µM, the TGI (EKVX NSCLC) was > 100 µM and the TGI (SK-MEL-2 melanoma) was > 100 µM. For the same compound, the TGI (XF 498 CNS) was > 100 µM, the TGI (HOP-18 NSCLC) was > 100 µM and the TGI (HCC-2998 colon) was > 100 µM. For the same compound, the TGI (HOP-62 NSCLC) was > 89.6 µM, the TGI (SNB-78 CNS) was > 100 µM and the TGI (CCRF-CEM leukemia) was > 100 µM.
In the case of `O=S(=O)(O)c1cc(O)c2c(O)c(N=Nc3ccc(/C=C/c4ccc(N=Nc5c(S(=O)(=O)O)cc6cc(S(=O)(=O)O)cc(O)c6c5O)cc4S(=O)(=O)O)c(S(=O)(=O)O)c3)c(S(=O)(=O)O)cc2c1`, the TGI (SR leukemia) is reported as > 100 µM, the TGI (NCI-H522 lung) is reported as > 100 µM and the TGI (RPMI-8226 leukemia) is reported as > 100 µM. For the same compound, the TGI (ACHN renal) was > 100 µM, the TGI (M19-MEL melanoma) was > 100 µM and the TGI (SW-620 colon) was > 100 µM. The TGI (IGROV1 ovarian) was > 100 µM, the TGI (HT29 colon) was > 100 µM and the TGI (KM12 colon) was > 100 µM. The TGI (SNB-75 CNS) was > 100 µM, the TGI (MALME-3M melanoma) was > 100 µM and the TGI (OVCAR-5 ovarian) was > 100 µM. For the same compound, the TGI (NCI-H23 lung) was > 100 µM, the TGI (MOLT-4 leukemia) was > 100 µM and the TGI (LOX IMVI melanoma) was > 100 µM. For the same compound, the TGI (DMS 273 small cell lung) was > 100 µM, the TGI (KM20L2 colon) was > 100 µM and the TGI (DLD-1 colon) was > 100 µM. For the same compound, the TGI (UO-31 renal) was > 100 µM, the TGI (786-0 renal) was > 100 µM and the TGI (SF-295 CNS) was > 100 µM. For the same compound, the TGI (HCT-116 colon) was > 100 µM, the TGI (A549 NSCLC) was > 100 µM and the TGI (SK-MEL-28 melanoma) was > 100 µM. The TGI (HL-60(TB) leukemia) was > 100 µM, the TGI (HCT-15 colon) was > 100 µM and the TGI (SNB-19 CNS) was > 100 µM. The TGI (SK-OV-3 ovarian) was > 100 µM, the TGI (LXFL 529 NSCLC) was > 100 µM and the TGI (TK-10 renal) was > 100 µM. The TGI (COLO 205 colon) was > 100 µM, the TGI (SN12C renal) was > 100 µM and the TGI (A498 renal) was > 100 µM. The TGI (K-562 leukemia) was > 100 µM, the TGI (SF-539 CNS) was > 100 µM and the TGI (OVCAR-3 ovarian) was > 100 µM. For the same compound, the TGI (NCI-H460 lung) was > 100 µM, the TGI (DMS 114 small cell lung) was > 100 µM and the TGI (UACC-62 melanoma) was > 100 µM. For the same compound, the TGI (OVCAR-4 ovarian) was > 100 µM, the TGI (RXF 393 renal) was > 100 µM and the TGI (OVCAR-8 ovarian) was > 100 µM. The TGI (HOP-92 NSCLC) was > 100 µM, the TGI (CAKI-1 renal) was > 100 µM and the TGI (SF-268 CNS) was > 100 µM. The TGI (UACC-257 melanoma) was > 100 µM, the TGI (SK-MEL-5 melanoma) was > 100 µM and the TGI (NCI-H226 lung) was > 100 µM. The TGI (M14 melanoma) was > 100 µM, the TGI (U251 CNS) was > 100 µM and the TGI (EKVX NSCLC) was > 100 µM. For the same compound, the TGI (SK-MEL-2 melanoma) was > 100 µM, the TGI (XF 498 CNS) was > 100 µM and the TGI (HOP-18 NSCLC) was > 100 µM. The TGI (HCC-2998 colon) was > 100 µM, the TGI (HOP-62 NSCLC) was > 100 µM and the TGI (CCRF-CEM leukemia) was > 100 µM.
